In ChEMBL document CHEMBL1909046, “DrugMatrix in vitro pharmacology data”:

Assays:
[1] = target: C-C chemokine receptor type 5 (Homo sapiens, UniProt P51681); format: cell membranes, Membrane; settings: hek293; note: in other assays of this panel Not Active means under 50% inhibition at 10 µM
[2] = target: T1, Type-2 angiotensin II receptor (Homo sapiens, UniProt P50052); test: biochemical; format: cell-based, CHO-K1; settings: cho-k1; note: in other assays of this panel Not Active means under 50% inhibition at 10 µM
T1 sequence (P50052 whole entry): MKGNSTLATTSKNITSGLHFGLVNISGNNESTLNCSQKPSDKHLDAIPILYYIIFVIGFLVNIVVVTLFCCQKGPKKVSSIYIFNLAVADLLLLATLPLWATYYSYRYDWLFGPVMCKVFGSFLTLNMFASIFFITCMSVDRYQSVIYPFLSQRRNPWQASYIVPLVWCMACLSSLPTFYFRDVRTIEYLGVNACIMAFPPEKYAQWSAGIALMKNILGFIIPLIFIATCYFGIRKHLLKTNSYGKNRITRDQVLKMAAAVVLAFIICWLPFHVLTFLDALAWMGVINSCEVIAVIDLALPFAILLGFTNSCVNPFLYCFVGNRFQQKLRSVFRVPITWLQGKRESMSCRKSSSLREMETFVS

[3] = target: T2, Neuropeptide Y receptor type 1 (Homo sapiens, UniProt P25929); format: cell membranes, Membrane; settings: sk-n-mc; note: in other assays of this panel Not Active means under 50% inhibition at 10 µM
T2 sequence (P25929 whole entry): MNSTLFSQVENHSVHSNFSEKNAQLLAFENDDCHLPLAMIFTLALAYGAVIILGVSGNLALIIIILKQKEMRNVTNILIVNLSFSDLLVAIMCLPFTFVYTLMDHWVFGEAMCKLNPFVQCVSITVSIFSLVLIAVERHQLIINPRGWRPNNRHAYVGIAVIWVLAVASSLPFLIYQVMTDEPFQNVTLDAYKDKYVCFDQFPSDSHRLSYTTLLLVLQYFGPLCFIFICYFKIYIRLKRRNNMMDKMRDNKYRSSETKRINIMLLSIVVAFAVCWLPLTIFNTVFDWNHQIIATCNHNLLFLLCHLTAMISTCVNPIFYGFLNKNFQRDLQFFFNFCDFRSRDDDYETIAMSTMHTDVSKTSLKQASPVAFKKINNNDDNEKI

[4] = DRUGMATRIX: GABAA, Flunitrazepam, Central radioligand binding (ligand: [3H] Flunitrazepam); format: cell membranes, Rattus norvegicus, Wistar, Brain, Membrane; settings: Not Active = under 50% inhibition at 10 µM
[5] = target: T3, C-X-C chemokine receptor type 1 (Homo sapiens, UniProt P25024); note: in other assays of this panel Not Active means under 50% inhibition at 10 µM
T3 sequence (P25024 whole entry): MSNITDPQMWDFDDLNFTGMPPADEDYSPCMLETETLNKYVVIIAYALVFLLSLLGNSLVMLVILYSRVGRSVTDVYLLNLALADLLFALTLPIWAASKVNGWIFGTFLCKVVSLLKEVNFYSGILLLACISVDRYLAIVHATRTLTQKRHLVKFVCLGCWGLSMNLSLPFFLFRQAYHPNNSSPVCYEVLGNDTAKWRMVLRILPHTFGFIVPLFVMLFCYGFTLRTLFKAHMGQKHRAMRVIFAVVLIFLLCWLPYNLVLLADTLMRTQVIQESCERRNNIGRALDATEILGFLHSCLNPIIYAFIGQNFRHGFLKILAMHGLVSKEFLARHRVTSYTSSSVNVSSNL

Carbonic anhydrase 2 = Carbonic anhydrase 2 (Homo sapiens, UniProt P00918); test: DRUGMATRIX: Carbonic Anhydrase II enzyme inhibition (substrate: 4-Nitrophenyl acetate (4-NPA)); format: tissue-based, Erythrocyte; settings: erythrocyte; Not Active = under 50% inhibition at 10 µM
[6] = target: T4, Neuropeptide Y receptor type 2 (Homo sapiens, UniProt P49146); format: cell membranes, Membrane; settings: kan-ts; note: in other assays of this panel Not Active means under 50% inhibition at 10 µM
T4 sequence (P49146 whole entry): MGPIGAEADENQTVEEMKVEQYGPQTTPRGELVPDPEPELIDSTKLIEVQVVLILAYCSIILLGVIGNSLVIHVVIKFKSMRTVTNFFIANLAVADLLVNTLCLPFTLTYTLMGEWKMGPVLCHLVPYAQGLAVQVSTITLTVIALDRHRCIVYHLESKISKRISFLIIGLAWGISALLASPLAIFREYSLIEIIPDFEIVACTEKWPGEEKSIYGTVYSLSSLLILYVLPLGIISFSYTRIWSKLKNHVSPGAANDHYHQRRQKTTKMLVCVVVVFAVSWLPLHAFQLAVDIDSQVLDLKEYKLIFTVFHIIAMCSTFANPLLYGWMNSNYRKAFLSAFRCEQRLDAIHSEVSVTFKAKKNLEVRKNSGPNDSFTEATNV

[7] = target: Tyrosine-protein kinase Lck (Homo sapiens, UniProt P06239); test: DRUGMATRIX: Protein Tyrosine Kinase, LCK enzyme inhibition (substrate: Poly(Glu:Tyr)); format: cell-based, Insect cells; settings: insect cells; Not Active = under 50% inhibition at 10 µM
Chain of Tyrosine-protein kinase Lck (P06239 whole entry): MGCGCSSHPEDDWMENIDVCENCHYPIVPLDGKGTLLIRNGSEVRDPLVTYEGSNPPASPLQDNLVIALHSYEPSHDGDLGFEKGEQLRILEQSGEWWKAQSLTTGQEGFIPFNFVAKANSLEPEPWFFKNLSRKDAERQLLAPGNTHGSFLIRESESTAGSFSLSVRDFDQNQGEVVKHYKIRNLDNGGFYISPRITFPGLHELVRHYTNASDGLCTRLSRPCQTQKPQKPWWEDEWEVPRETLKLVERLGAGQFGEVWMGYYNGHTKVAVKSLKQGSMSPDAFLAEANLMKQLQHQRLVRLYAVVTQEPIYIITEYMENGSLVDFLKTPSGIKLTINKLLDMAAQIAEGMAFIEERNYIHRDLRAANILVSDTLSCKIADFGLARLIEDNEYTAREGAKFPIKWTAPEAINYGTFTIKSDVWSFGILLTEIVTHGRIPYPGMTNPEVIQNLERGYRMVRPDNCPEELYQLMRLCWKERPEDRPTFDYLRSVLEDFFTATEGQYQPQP

Chain of C-C chemokine receptor type 5 (P51681 whole entry): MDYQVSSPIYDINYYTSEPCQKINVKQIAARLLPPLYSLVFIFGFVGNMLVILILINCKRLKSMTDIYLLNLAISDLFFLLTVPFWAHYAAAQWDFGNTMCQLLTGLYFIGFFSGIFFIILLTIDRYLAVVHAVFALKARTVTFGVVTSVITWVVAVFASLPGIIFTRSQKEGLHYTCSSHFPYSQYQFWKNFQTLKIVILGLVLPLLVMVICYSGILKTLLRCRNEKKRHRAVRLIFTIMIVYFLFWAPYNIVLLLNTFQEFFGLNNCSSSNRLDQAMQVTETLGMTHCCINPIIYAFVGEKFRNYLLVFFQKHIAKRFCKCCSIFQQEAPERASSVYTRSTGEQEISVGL

CC(C)(C)NCC(O)COc1cccc2c1CC(O)C(O)C2 (stereo unspecified) [NADOLOL]
Not Active: IC50 [1] | IC50 [2] | IC50 [3] | IC50 [4] | Ki [4] | IC50 [5] | IC50 (Carbonic anhydrase 2) | IC50 [6] | IC50 [7]

CCCNC(=O)NS(=O)(=O)c1ccc(Cl)cc1 [CHLORPROPAMIDE]
Not Active: IC50 [1] | IC50 [2] | IC50 [3] | IC50 [4] | Ki [4] | IC50 [5] | IC50 (Carbonic anhydrase 2) | IC50 [6] | IC50 [7]

CO/N=C(\C(=O)N[C@@H]1C(=O)N2C(C(=O)O)=C(COC(C)=O)CS[C@H]12)c1csc(N)n1 [CEFOTAXIME]
Not Active: IC50 [1] | IC50 [2] | IC50 [3] | IC50 [4] | Ki [4] | IC50 [5] | IC50 (Carbonic anhydrase 2) | IC50 [6] | IC50 [7]

Nc1cc(-c2ccncc2)c[nH]c1=O [INAMRINONE]
Not Active: IC50 [1] | IC50 [2] | IC50 [3] | IC50 [4] | Ki [4] | IC50 [5] | IC50 (Carbonic anhydrase 2) | IC50 [6] | IC50 [7]
